Source: article PMC10447463, “Data-mining unveils structure–property–activity correlation of viral infectivity enhancing self-assembling peptides” (Nature Communications, 2023)
Like-named read-outs stand apart in the source and are kept apart here.

Legend:
[1] = system: HIV-1 infection of TZM-bl cells; test: HIV-1 infectivity enhancement assay, β-galactosidase luminescence; format: cell-based
[2] = format: physicochemical; design: key to Fibril / Fibril Formation / TEM 2cat / Fibril: 1 = fibrils present; 0 non-fibrillar structures; conditions: for Fibril / Fibril Formation: TEM, 1 mg/mL, uranyl acetate stain, qualitative
[3] = Turbidity, derived count rate of scattered light; format: physicochemical; conditions: for Zeta Count Rate / kcps: mean; for Zeta Count Rate Category: key not given; for Count Rate / kcps: derived count rate of scattered light at 633 nm, 173°, from zeta-potential measurement, 0.1 mg/mL in 1 mM KCl after 1 d at 1 mg/mL in PBS, turbidity / microscopic aggregation, mean of triplicate; for Log Count Rate: log of derived count rate
In short: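 Samples: 1 mg/mL in PBS pH 7.4 (from DMSO), 1 d at RT, then diluted in 1 mM KCl immediately before measurement. Triplicates, two independent runs averaged.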

[4] = infectivity class (low / medium / high) of each library peptide; main list in c1-c6, same classes repeated in sub-lists of sequences containing the hydrophobicity/charge patterns P+,H0,P+,H0,P0,H0,P0; P+,H0,P0,H0,P0,H0,P0; P+,H0,P0,H0
[5] = infectivity enhancement relative to EF-C (=1); Feb2021 run
[6] = infectivity n-fold relative to virus only; Feb2021 run
[7] = log10 of HIV-1 infection of TZM-bl cells relative to EF-C; Fig S15 source data; asymmetric std dev errors
[8] = log10 of infectivity relative to EF-C; Feb2021 run
[9] = derived count rate from zeta measurement
[10] = HIV-1 infection relative to EF-C; Fig 23 plot, panels A and B; mean of 3 values
[11] = HIV-1 infection relative to EF-C; Fig 23 plot, single data point, replicate 1
[12] = HIV-1 infection relative to EF-C; Fig 23 plot, single data point, replicate 2
[13] = HIV-1 infection relative to EF-C; Fig 23 plot, single data point, replicate 3
[14] = log10 of infection relative to EF-C, Figure 6C
[15] = n-fold infection vs virus only, relative to that of EF-C, 1.3 µM peptide
[16] = log10 of derived count rate of scattered light, Figure 6C
[17] = logarithm of count rate in kcps
[18] = Feb2021 run; infectivity n-fold relative to virus alone
[19] = Feb2021 run; log10 of infectivity relative to EF-C
[20] = Feb2021 run; n-fold infectivity relative to EF-C
[21] = infectivity class (low / medium / high) of the peptide in the sequence-pattern analysis, Fig. S22-A4; class limits not given

CEFEFQF [KB12]
infectivity [1, 4]: low
Rel-to EFC (Feb-2021) [1, 5]: 0.003272
n-fold to virus (Feb2021) [1, 6]: 0.1375
Log10 Inf. rel. to EF-C [1, 7]: -2.283
Log10 of Rel to EFC (Feb2021) [1, 8]: -2.485
TEM: 1= fibrils, 0= aggregates (micelle), 0.5 = aggregates and fibrils, -1 = nothing obersved, STD prep [2]: 0
Zeta Count Rate / kcps [3, 9]: 405.4 kcps
Zeta Count Rate Category [3]: 1

CKFKFPF
Inf. rel. EF-C [1, 10]: 0.02481
Inf. rel. EF-C [1, 11]: 0.05139
Inf. rel. EF-C [1, 12]: 0.01572
Inf. rel. EF-C [1, 13]: 0.007313
Log10 Infection Rel EF-C [1, 14]: -1.6054
Inf. rel. EF-C [1, 15]: 0.02
Fibril / Fibril Formation [2]: 0
Count Rate / kcps [3]: 143.4 kcps
Log10 Count Rate [3, 16]: 2.156
Log10 Count Rate [3, 17]: 2.156

CKIKIQIII [AR0 / F19]
n-fold to virus (Feb2021) [1, 18]: 41.02
Log10 of Rel to EFC (Feb2021) [1, 19]: -0.01045
Rel-to EFC (Feb-2021) [1, 20]: 0.9762
infectivity [1, 4]: high
infectivity [1, 21]: high
Log10 Inf. rel. to EF-C [1, 7]: -0.01045
TEM: 1= fibrils, 0= aggregates (micelle), 0.5 = aggregates and fibrils, -1 = nothing obersved, STD prep [2]: 1
Zeta Count Rate / kcps ([3]; derived count rate of scattered light, std deviation in separate column): 4953 kcps

CKIKIQIRGD [psis21]
infectivity [1, 4]: medium
Log10 Inf. rel. to EF-C [1, 7]: -0.4842
TEM: 1= fibrils, 0= aggregates (micelle), 0.5 = aggregates and fibrils, -1 = nothing obersved, STD prep ([2]; FigS26): 1

CKIKIWIW
Log10 Infection Rel EF-C [1, 14]: -0.06382
Inf. rel. EF-C [1, 15]: 0.86
Fibril / Fibril Formation [2]: 1
Count Rate / kcps [3]: 3321 kcps
Log10 Count Rate [3, 16]: 3.521
Log10 Count Rate [3, 17]: 3.521

CKIWIQIY
Log10 Infection Rel EF-C [1, 14]: -0.2415
Inf. rel. EF-C [1, 15]: 0.57
Fibril / Fibril Formation [2]: 1
Count Rate / kcps [3]: 1842.4 kcps
Log10 Count Rate [3, 16]: 3.265
Log10 Count Rate [3, 17]: 3.265

CRFRFHFH
Log10 Infection Rel EF-C [1, 14]: -0.2767
Inf. rel. EF-C [1, 15]: 0.53
Fibril / Fibril Formation [2]: 1
Count Rate / kcps [3]: 430.2 kcps
Log10 Count Rate [3, 16]: 2.634
Log10 Count Rate [3, 17]: 2.634

CRLRVGVS
Inf. rel. EF-C [1, 10]: 0.04346
Inf. rel. EF-C [1, 11]: 0.06547
Inf. rel. EF-C [1, 12]: 0.03045
Inf. rel. EF-C [1, 13]: 0.03448
Log10 Infection Rel EF-C [1, 14]: -1.362
Inf. rel. EF-C [1, 15]: 0.04
Fibril / Fibril Formation [2]: 0
Count Rate / kcps [3]: 35.07 kcps
Log10 Count Rate [3, 16]: 1.545
Log10 Count Rate [3, 17]: 1.545

CRLSLSLS
Inf. rel. EF-C [1, 10]: 0.3134
Inf. rel. EF-C [1, 12]: 0.2799
Inf. rel. EF-C [1, 13]: 0.2877
Log10 Infection Rel EF-C [1, 14]: -0.5039
Inf. rel. EF-C [1, 15]: 0.31
Fibril / Fibril Formation [2]: 1
Count Rate / kcps [3]: 1697 kcps
Log10 Count Rate [3, 16]: 3.23
Log10 Count Rate [3, 17]: 3.23

EIEIQINM [TM95 / (TM75)]
infectivity [1, 21]: low
Rel-to EFC (Feb-2021) [1, 5]: 0.03629
n-fold to virus (Feb2021) [1, 6]: 1.525
Log10 Inf. rel. to EF-C [1, 7]: -1.44
Log10 of Rel to EFC (Feb2021) [1, 8]: -1.44
TEM: 1= fibrils, 0= aggregates (micelle), 0.5 = aggregates and fibrils, -1 = nothing obersved, STD prep [2]: 1
Zeta Count Rate / kcps [3, 9]: 134 kcps
Zeta Count Rate Category [3]: 1

EIEIQINMWQ [VH8]
infectivity [1, 4]: medium
Rel-to EFC (Feb-2021) [1, 5]: 0.1315
n-fold to virus (Feb2021) [1, 6]: 5.526
Log10 Inf. rel. to EF-C [1, 7]: -0.881
Log10 of Rel to EFC (Feb2021) [1, 8]: -0.881
TEM: 1= fibrils, 0= aggregates (micelle), 0.5 = aggregates and fibrils, -1 = nothing obersved, STD prep [2]: 0.5
Zeta Count Rate / kcps [3, 9]: 1264 kcps
Zeta Count Rate Category [3]: 1

GYVIIK [reference compound]
infectivity enhancement, in words ([1]; fibril-forming peptides with positive zeta-potential, low count rate): do not enhance infectivity
Log10 Infection Rel EF-C ([1]; log10 of infection relative to EF-C, Figure 7B): -0.99
Inf. rel. EF-C [1, 15]: 0.10
Fibril / Fibril Formation [2]: 0
Count Rate / kcps [3]: 30 kcps

KFKFQFF [TG6]
Absolute Infectivity / RLU /s (Feb2021) ([1]; Feb2021; figures match the 1.3 µM column): 2850 RLU /s
n-fold to virus (Feb2021) ([1]; Feb2021; infectivity relative to virus only): 5.12
Log10 of Rel to EFC (Feb2021) ([1]; Feb2021; log10 of infectivity relative to EF-C): -0.9142
Rel-to EFC (Feb-2021) ([1]; Feb2021; n-fold infectivity relative to EF-C): 0.1218
n-fold to virus (Feb2021) [1, 18]: 5.12
Log10 of Rel to EFC (Feb2021) [1, 19]: -0.9142
Rel-to EFC (Feb-2021) [1, 20]: 0.1218
infectivity [1, 4]: medium
Rel-to EFC (Feb-2021) [1, 5]: 0.1218
n-fold to virus (Feb2021) [1, 6]: 5.12
Log10 Inf. rel. to EF-C [1, 7]: -0.9142
Log10 of Rel to EFC (Feb2021) [1, 8]: -0.9142
TEM: 1= fibrils, 0= aggregates (micelle), 0.5 = aggregates and fibrils, -1 = nothing obersved, STD prep [2]: 1

KIKIQIAMWQ [JR4]
infectivity [1, 4]: medium
Log10 Inf. rel. to EF-C [1, 7]: -0.4109
TEM: 1= fibrils, 0= aggregates (micelle), 0.5 = aggregates and fibrils, -1 = nothing obersved, STD prep ([2]; FigS26): 1

KIKIQIMQWN [VH16]
infectivity [1, 21]: high
Log10 Inf. rel. to EF-C [1, 7]: -0.1454
TEM: 1= fibrils, 0= aggregates (micelle), 0.5 = aggregates and fibrils, -1 = nothing obersved, STD prep ([2]; FigS26): 1

KIKIQIMWNQ [VH15]
infectivity [1, 4]: medium
Log10 Inf. rel. to EF-C [1, 7]: -0.2495
TEM: 1= fibrils, 0= aggregates (micelle), 0.5 = aggregates and fibrils, -1 = nothing obersved, STD prep ([2]; FigS26): 1

KIKIQINAWQ [JR3-II]
infectivity [1, 4]: medium
Log10 Inf. rel. to EF-C [1, 7]: -0.2703
TEM: 1= fibrils, 0= aggregates (micelle), 0.5 = aggregates and fibrils, -1 = nothing obersved, STD prep ([2]; FigS26): 1

KIKIQINMAQ [JR2]
infectivity [1, 4]: medium
Log10 Inf. rel. to EF-C [1, 7]: -0.6722
TEM: 1= fibrils, 0= aggregates (micelle), 0.5 = aggregates and fibrils, -1 = nothing obersved, STD prep ([2]; FigS26): 1

KIKIQINMWA [JR1]
infectivity [1, 4]: medium
Log10 Inf. rel. to EF-C [1, 7]: -0.1642
TEM: 1= fibrils, 0= aggregates (micelle), 0.5 = aggregates and fibrils, -1 = nothing obersved, STD prep ([2]; FigS26): 1

KIKIQIRGD [MG6]
infectivity [1, 4]: low
infectivity [1, 21]: low
Log10 Inf. rel. to EF-C [1, 7]: -1.678
TEM: 1= fibrils, 0= aggregates (micelle), 0.5 = aggregates and fibrils, -1 = nothing obersved, STD prep ([2]; FigS26): 1

NMWQKAKAQA [JG10]
infectivity [1, 4]: low
Log10 Inf. rel. to EF-C [1, 7]: -1.376
TEM: 1= fibrils, 0= aggregates (micelle), 0.5 = aggregates and fibrils, -1 = nothing obersved, STD prep ([2]; FigS26): 1

NMWQKFKFQF [JG11]
infectivity [1, 4]: medium
Log10 Inf. rel. to EF-C [1, 7]: -0.5672
TEM: 1= fibrils, 0= aggregates (micelle), 0.5 = aggregates and fibrils, -1 = nothing obersved, STD prep ([2]; FigS26): 1

NMWQKIKIQI [JG9]
infectivity [1, 4]: medium
Log10 Inf. rel. to EF-C [1, 7]: -0.6877
TEM: 1= fibrils, 0= aggregates (micelle), 0.5 = aggregates and fibrils, -1 = nothing obersved, STD prep ([2]; FigS26): 1

NMWQKIKQII [JG8]
infectivity [1, 4]: low
Log10 Inf. rel. to EF-C [1, 7]: -1.5971
TEM: 1= fibrils, 0= aggregates (micelle), 0.5 = aggregates and fibrils, -1 = nothing obersved, STD prep ([2]; FigS26): 0

RGDSGGGGGGKIKIQIC [TM114 / RC17]
Rel-to EFC ([1]; Fig S8 panels B, D; infectivity enhancement relative to EF-C): 0.8654
n-fold to virus ([1]; Fig S8 panels B, D; infectivity n-fold relative to virus alone): 36.36
infectivity [1, 21]: high
Log10 Inf. rel. to EF-C [1, 7]: -0.0628
Log Count Rate ([3]; Fig S8 panels A, C, asymmetric log errors): 4.018
Log Count Rate ([3]; Fig S8 panels B, D): 4.018
Count Rate ([3]; Fig S8 panels B, D, turbidity, derived count rate of scattered light): 10416.2
